Data as given in PubChem BioAssay AID651630 (Sanford-Burnham Center for Chemical Genomics, 2012).
Calls of active or inactive are those of the source.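 The calls were made as follows: active = lipid-stain IC50 at or below a set limit, with nuclear-stain toxicity IC50 at least five times higher; inactive = the rest.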

Legend:
[1] = test system: TAG; assay: TAG lipid buildup inhibition with viability readout – cell-based, panel, Nile Red and DAPI fluorescence, H9c2, dose response (AID 651630); conditions: H9c2 cells, Nile Red TAG fluorescence, oleic acid;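 also: cells exposed to compound overnight before fixation and staining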
[2] = test system: DAPI; assay: as above; conditions: H9c2 cells, DAPI nuclear fluorescence (cytotoxicity counter-readout), oleic acid

SMILES | IC50 ([1]; mean of runs) | IC50 ([1]; run 1) [µM] | IC50 ([1]; run 2) [µM] | IC50 cytotoxicity (DAPI nuclear signal decrease) ([2]; mean of runs) | IC50 cytotoxicity (DAPI nuclear signal decrease) ([2]; run 1) [µM] | IC50 cytotoxicity (DAPI nuclear signal decrease) ([2]; run 2) [µM]
COc1cc2c(cc1[N+](=O)[O-])-c1ccc([N+](=O)[O-])cc1C2=NNC(N)=S | > 25 µM (inactive) | > 25 | > 25 | > 25 µM (inactive) | > 25 | > 25
COC(=O)[C@]1(Cc2ccccc2)N[C@H](c2ccc(-c3cccc(Cl)c3)c(OC)c2)[C@@H]2C(=O)N(C)C(=O)[C@@H]21 | > 25 µM (inactive) | > 25 | > 25 | > 25 µM (inactive) | > 25 | > 25
COc1cc(C(CCN2CCCC(C)C2)c2c(OC)cc(OC)c3c(-c4ccccc4)cc(=O)oc23)cc(OC)c1OC (centres undefined) | 14.1 µM | 14.8 | 13.5 | > 25 µM (inactive) | > 25 | > 25
Cc1cc(C)n(-c2nc3c(c(=O)[nH]c(=O)n3C)n2CC(O)COc2ccc(Cl)cc2Cl)n1 (centres undefined) |  | 11.2 | > 25 | > 25 µM (inactive) | > 25 | > 25
COc1ccc2[nH]c3c(c2c1)CCN1C(=O)C(CC(=O)NC/C=C(\C)CCC=C(C)C)C[C@H](C(=O)N(C(C)C)C(C)C)[C@@]31C (some centres undefined) | 19.3 µM (inactive) | 19.5 | 19.1 |  | 19.8 | > 25
COc1ccc(S(=O)(=O)N(C)C[C@@H]2OCCCC[C@H](C)Oc3ccc(NC(=O)Nc4ccc(C(F)(F)F)cc4)cc3C(=O)N([C@H](C)CO)C[C@H]2C)cc1 | > 25 µM (inactive) | > 25 | > 25 | > 25 µM (inactive) | > 25 | > 25
C[C@@]12C(=O)Nc3ccc(Br)cc3C(=O)N1[C@H]1c3cc(Br)ccc3OC[C@@H]1[C@@H]2c1ccccc1 | 4.98 µM | 4.48 | 5.47 |  | > 25 | > 25
C=CC[C@@H](CC(=O)N(CCO)Cc1ccccc1)C(=O)N[C@@H](COC(=O)[C@@H](CC=C)Cc1ccc(F)cc1)Cc1ccccc1 | 9.33 µM | 8.74 | 9.91 | > 25 µM (inactive) | > 25 | > 25
CN(C)C(=S)N=c1ssc(=S)n1Cc1ccco1 | > 25 µM (inactive) | > 25 | > 25 | > 25 µM (inactive) | > 25 | > 25
O=C(CSc1nc2ccc(Nc3nc(N4CCOCC4)nc(N4CCOCC4)n3)cc2s1)Nc1ccccc1F | 12.9 µM | 12.6 | 13.2 | > 25 µM (inactive) | > 25 | > 25
O=C1N=C(N2CCOCC2)S/C1=C/c1ccc(-c2ccc(F)cc2)o1 | 19.7 µM (inactive) | 18.6 | 20.7 | > 25 µM (inactive) | > 25 | > 25
CCCCCCN(C(=O)CCCCCN1C(=O)NC(c2ccc([N+](=O)[O-])cc2)C(C(=O)OCc2ccccc2)=C1C)C(C(=O)NCCCC)C1CCCCC1 (centres undefined) | 5.66 µM | 3.7 | 7.62 | > 25 µM (inactive) | > 25 | > 25
c1ccc(Oc2nc(-c3ccccn3)nc3ccccc23)cc1 | > 25 µM (inactive) | > 25 | > 25 | > 25 µM (inactive) | > 25 | > 25
COc1cc(-c2nc3c(c(C)nn3-c3ccccc3)c3cc(OC)c(OC)cc23)ccc1O | > 25 µM (inactive) | > 25 | > 25 | > 25 µM (inactive) | > 25 | > 25
COc1cc2c(cc1OC)C(C)N(C(=O)c1cc3c(C)cc(C)cc3[nH]1)CC2 (centres undefined) | 9.16 µM | 9.59 | 8.73 | > 25 µM (inactive) | > 25 | > 25
COc1ccc(C(=O)Nc2sc3c(c2C(=O)NCc2ccco2)CCCC3)cc1OC | > 25 µM (inactive) | > 25 | > 25 | > 25 µM (inactive) | > 25 | > 25
O=C1CCCC2=C1C1(CCCC1)N=C(Nc1nc3cc(-c4ccccc4)ccc3o1)N2 | 17.5 µM (inactive) | 15.5 | 19.5 | > 25 µM (inactive) | > 25 | > 25

SMILES | IC50 ([1]; mean of runs) | IC50 ([1]; run 1) [µM] | IC50 ([1]; run 2) [µM] | IC50 cytotoxicity (DAPI nuclear signal decrease) ([2]; mean of runs) | IC50 cytotoxicity (DAPI nuclear signal decrease) ([2]; run 1) [µM] | IC50 cytotoxicity (DAPI nuclear signal decrease) ([2]; run 2) [µM]
CCOc1ccc2nc(-c3ccccc3)nc(SCC(=O)Nc3ncc(C)s3)c2c1 | > 25 µM (inactive) | > 25 | > 25 | > 25 µM (inactive) | > 25 | > 25
COc1cc(CNC(=O)Nc2nc(C(N)Cc3ccc(Cl)cc3)cs2)cc(OC)c1OC (centres undefined) | 3.91 µM | 3.31 | 4.5 |  | > 25 | > 25
C=C1c2nc3ccccc3n2C=C(c2ccc(C)cc2)N1c1ccccc1 | 16.5 µM (inactive) | 10.9 | 22.2 | > 25 µM (inactive) | > 25 | > 25
C=CCn1c(N)c(C(=O)Nc2ccccc2)c2nc3ccccc3nc21 | 6.11 µM | 6.18 | 6.04 | > 25 µM (inactive) | > 25 | > 25
COc1cc(C2C(C#N)=C(N)Oc3cc4c(cc32)OCO4)cc(OC)c1OC (centres undefined) |  | > 25 | 3.52 | > 25 µM (inactive) | > 25 | > 25
C=CC[C@@H](CC(=O)N(CCO)Cc1ccccc1)C(=O)N[C@H](COC(=O)[C@@H](CC=C)Cc1ccc(F)cc1)C(C)(C)C | 4.28 µM | 3.51 | 5.05 |  | > 25 | > 25
O=[N+]([O-])c1cc(S(=O)(=O)Nc2cccc(Cl)c2)ccc1N/N=C/c1ccc(N2CCOCC2)cc1 | 13.6 µM | 12.5 | 14.7 | > 25 µM (inactive) | > 25 | > 25
COc1cc(C2C3=C(COC3=O)Oc3cc4c(cc32)OCO4)ccc1O (centres undefined) | 15.6 µM (inactive) | 14.9 | 16.2 | > 25 µM (inactive) | > 25 | > 25
Cc1cc(N2CCOCC2)n2nc(C)c(-c3ccccc3)c2n1 |  | 14.6 | > 25 | > 25 µM (inactive) | > 25 | > 25
C=CCC[C@H](Cc1ccc(F)cc1)C(=O)OC[C@@H](NC(=O)[C@@H](CC=C)CC(=O)N(CCO)Cc1ccccc1)C(C)(C)C | 2.94 µM | 2.57 | 3.32 |  | > 25 | > 25
CCOc1cc2c(cc1O)CCC1C2CCC2(C)C(O)CCC12 (centres undefined) |  | 17.4 | > 25 | > 25 µM (inactive) | > 25 | > 25
C=CC[C@@H](CC(=O)N(CCO)Cc1ccccc1)C(=O)N[C@H](COC(=O)[C@@H](CC=C)CC(=O)OC(C)(C)C)Cc1ccccc1 | 5.86 µM | 5.71 | 6.02 | > 25 µM (inactive) | > 25 | > 25
CNC(=S)NN=C(C)c1ccc(OC)cc1O | > 25 µM (inactive) | > 25 | > 25 | > 25 µM (inactive) | > 25 | > 25
CN(C)CC(O)c1ccc(C=Cc2ccc(Cl)cc2)cc1 (centres undefined) | 13.8 µM | 11.6 | 16.1 | > 25 µM (inactive) | > 25 | > 25
O=C1N[C@@H](Cc2ccccc2)COC(=O)[C@@H](Cc2ccc(F)cc2)CC/C=C/C[C@@H]1CC(=O)N(CCO)Cc1ccccc1 | 20.4 µM (inactive) | 18.5 | 22.3 | > 25 µM (inactive) | > 25 | > 25
NC(Cc1ccc(Cl)cc1)c1csc(NC(=O)NCCc2ccccc2)n1 (centres undefined) | > 25 µM (inactive) | > 25 | > 25 | 19.7 µM (inactive) | 19 | 20.4
